Experimental data reported in PubChem BioAssay (NCI).
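In this assay, cells in 96-well plates receive the compound at five concentrations for 48 hours. Endpoints are linearly interpolated between the surrounding concentrations. GI50 marks 50% less growth. TGI is the concentration that stops growth completely.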

Experiments:
Test in all cases: NCI anticancer screen, dose series, 48 h
[1] = test system: NCI-H23 lung
[2] = test system: NCI-H460 lung
[3] = test system: NCI-H522 lung
[4] = test system: NCI/ADR-RES ovarian
[5] = test system: OVCAR-4 ovarian
[6] = test system: OVCAR-5 ovarian
[7] = test system: OVCAR-8 ovarian
[8] = test system: PC-3 prostate
[9] = test system: RPMI-8226 leukemia
[10] = test system: RXF 393 renal
[11] = test system: SF-268 CNS
[12] = test system: SF-295 CNS
[13] = test system: SF-539 CNS
[14] = test system: SK-MEL-2 melanoma
[15] = test system: SK-MEL-28 melanoma
[16] = test system: SK-MEL-5 melanoma
[17] = test system: SK-OV-3 ovarian
[18] = test system: SN12C renal
[19] = test system: SNB-19 CNS
[20] = test system: SNB-75 CNS
[21] = test system: SR leukemia
[22] = test system: SW-620 colon
[23] = test system: T-47D breast
[24] = test system: TK-10 renal
[25] = test system: U251 CNS
[26] = test system: UACC-257 melanoma
[27] = test system: UACC-62 melanoma
[28] = test system: UO-31 renal

Compound: CCCCCc1ccc(S(=O)(=O)Nc2cc(-c3csc(NC(=O)CN4CCN(CCO)CC4)n3)ccc2OC)cc1
- TGI [1]: 4380 nM
- GI50 [2]: 1840 nM
- TGI [2]: 3460 nM
- GI50 [3]: 1860 nM
- TGI [3]: 3580 nM
- GI50 [4]: 3490 nM
- TGI [4]: 14100 nM
- GI50 [5]: 2050 nM
- TGI [5]: 5120 nM
- GI50 [6]: 2190 nM
- TGI [6]: 5440 nM
- GI50 [7]: 1820 nM
- TGI [7]: 3520 nM
- GI50 [8]: 2680 nM
- TGI [8]: 7880 nM
- GI50 [9]: 1780 nM
- TGI [9]: 4280 nM
- GI50 [10]: 1380 nM
- TGI [10]: 3010 nM
- GI50 [11]: 1700 nM
- TGI [11]: 3400 nM
- GI50 [12]: 1890 nM
- TGI [12]: 3740 nM
- GI50 [13]: 1540 nM
- TGI [13]: 2950 nM
- GI50 [14]: 1780 nM
- TGI [14]: 3360 nM
- GI50 [15]: 1770 nM
- TGI [15]: 3250 nM
- GI50 [16]: 1770 nM
- TGI [16]: 3200 nM
- GI50 [17]: 1810 nM
- TGI [17]: 3300 nM
- GI50 [18]: 1940 nM
- TGI [18]: 3690 nM
- GI50 [19]: 2050 nM
- TGI [19]: 4590 nM
- GI50 [20]: 1390 nM
- TGI [20]: 2750 nM
- GI50 [21]: 1760 nM
- TGI [21]: 5230 nM
- GI50 [22]: 1750 nM
- TGI [22]: 3300 nM
- GI50 [23]: 1790 nM
- TGI [23]: 3780 nM
- GI50 [24]: 1940 nM
- TGI [24]: 3960 nM
- GI50 [25]: 1730 nM
- TGI [25]: 3410 nM
- GI50 [26]: 1660 nM
- TGI [26]: 3220 nM
- GI50 [27]: 1810 nM
- TGI [27]: 3540 nM
- GI50 [28]: 1520 nM
- TGI [28]: 3030 nM
